{"source": "paper PMC8610377", "about": "“Target identification for small-molecule discovery in the FOXO3a tumor-suppressor pathway using a biodiverse peptide library” (Cell Chemical Biology, 2021)", "molecules": {"B1": {"name": "TAMRA-9J10 peptide (5-TAMRA-…(p-Serine)N-acid) (peptide)", "peptide": "LNRTPGRRRNSN", "HELM": "PEPTIDE1{[CN(C)c1ccc2c(-c3ccc(C(=O)[*:2])cc3C(=O)[O-])c3ccc(N(C)C)cc3[o+]c2c1].L.N.R.T.P.G.R.R.R.N.[O=C([C@H](COP(=O)(O)O)N[*:1])[*:2]].N}$$$$V2.0", "SMILES": "CC(C)C[C@H](NC(=O)c1ccc(-c2c3ccc(N(C)C)cc3[o+]c3cc(N(C)C)ccc23)c(C(=O)[O-])c1)C(=O)N[C@@H](CC(N)=O)C(=O)N[C@@H](CCCNC(=N)N)C(=O)N[C@H](C(=O)N1CCC[C@H]1C(=O)NCC(=O)N[C@@H](CCCNC(=N)N)C(=O)N[C@@H](CCCNC(=N)N)C(=O)N[C@@H](CCCNC(=N)N)C(=O)N[C@@H](CC(N)=O)C(=O)N[C@@H](COP(=O)(O)O)C(=O)N[C@@H](CC(N)=O)C(=O)O)[C@@H](C)O"}}, "key": {"[1]": {"biological_target": "T1, 14-3-3ε (Homo sapiens, UniProt P62258)", "T1 sequence (P62258 1-255)": "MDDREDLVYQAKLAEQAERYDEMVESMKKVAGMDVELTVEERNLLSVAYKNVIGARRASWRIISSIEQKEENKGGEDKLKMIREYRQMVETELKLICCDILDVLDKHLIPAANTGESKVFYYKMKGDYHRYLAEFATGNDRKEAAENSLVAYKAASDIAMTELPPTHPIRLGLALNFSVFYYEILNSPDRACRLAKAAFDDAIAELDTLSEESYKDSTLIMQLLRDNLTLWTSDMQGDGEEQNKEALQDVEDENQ", "assay": "STD-NMR", "type": "binding", "details": "100 μM 9J10, 10 μM 14-3-3ε, 2% d6-DMSO", "experimental": "(§1) Protein purity was visualized by running SDS-PAGE.\n1H NMR and STD spectra were recorded with a Bruker Avance-III HD 600 MHz at 298 K. Bruker TopSpin software was used to acquire and process the NMR data. NMR samples were prepared in D2O, with 100 μM 9J10 peptide (LNRTPGRRRN(p-Serine)N-acid) (Sigma-Aldrich), and 10 μM 14-3-3ε protein. For STD NMR measurements standard Bruker pulse sequence stddiffesgp.3 was used, the on-resonance frequency was set to be 0 ppm, and the off-resonance frequency at −40 ppm. The number of scans was typically 64, both the saturation pulses and relaxation delay were set to be 5 s and the power of the shaped pulse for saturation was set at 40 dB. Experiments with the varying concentrations of CU7218 were performed by mixing appropriate volume of the compound in DMSO and the final DMSO concentration was adjusted to 2.0% by using d6-DMSO."}, "[2]": {"biological_target": "T2, 9J10/14-3-3ε interaction (Homo sapiens, UniProt P62258)", "T2 construct": "A synthetic gene construct encoding full length human 14-3-3ε; made in house; host or cells: E. coli BL21(DE3)", "T2 sequence (P62258 1-255)": "T1 sequence (P62258 1-255)", "assay": "FP competition, TAMRA-p9J10Min binding to 14-3-3ε", "details": "10nM TAMRA-p9J10Min, His-14-3-3ε 1.5 μM, top concentration 200 μM, 0.4% DMSO; mean of three independent experiments; read-out: IC50, FP", "experimental": "Protein purity was visualized by running SDS-PAGE. […] Compound dilution plates, black 384 well NBS assay plates and tip racks were loaded into the Cytomat as indicated by the scheduling software. […] Test compounds were diluted to 3X final concentration in the dilution plates. 10 μL of diluted compound was added into each well of the assay plate followed by 10μL of […]-3-3ε and 10μL of TAMRA-p9J10Min. Plates were incubated at room temperature for 20 min on the robot's deck or in the Cytomat before the Fluorescence Polarisation was read using the BMG PheraStar plate reader. Test compounds were assayed in triplicate. […] DMSO controls were run alongside all experimental compounds and % inhibition normalised to these controls. All other experimental conditions were as described above."}, "[3]": {"test_system": "polo-box domain of human polo-like kinase 1 (PLK1)", "assay": "selectivity: substrate recognition by polo-box domain", "type": "binding"}, "[4]": {"biological_target": "T2, 9J10/14-3-3ε interaction", "assay": "competitive microscale thermophoresis (MST)", "type": "binding", "details": "20 nM labeled 14-3-3ε, 1 μM cognate peptide (EC80), 2% DMSO, 25°C; mean of three independent experiments", "experimental": "as §1\nThe 14-3-3ε protein was labeled with NT-647-NHS fluorescent dye using the Monolith Protein Labeling Kit (Cat# MO-L011, NanoTemper Technologies). Assays were carried out in 10 mM Hepes, 150 mM NaCl and 0.01% Tween 20. For the direct binding assay, 10 μL of labeled protein at a final concentration of 20 nM was mixed with 10 μL of cognate peptide. For the competitive assay, 10 μL of labeled protein at a final concentration of 20 nM was mixed with 1 μM of cognate peptide at the EC80 concentration determined by prior titration using a 16-point serial dilution by direct-binding MST. […] An initial ‘‘CapillaryScan’’ was performed to scan for fluorescence across the length of the capillary tray to determine the exact position of each capillary before the MST measurement was started. Test compound in 2% final DMSO concentration was assayed at 16 different concentrations by serial dilution, and data were analyzed using NanoTemper analysis software with ‘‘T-jump + Thermophoresis’’ settings. The change in thermophoresis between different experimental conditions was expressed as the change in the normalized fluorescence (ΔFnorm), which is defined as Fhot/Fcold (F-values correspond to average fluorescence values between defined areas in the curve under steadystate conditions under control (Fcold) or experimental (Fhot) conditions). […]"}, "[5]": {"biological_target": "6x His-14-3-3ε (full length human 14-3-3ε) (human) (UniProt P62258)", "assay": "ITC; 24 μM 14-3-3ε in the cell titrated with 360 μM TAMRA-9J10; 25°C; 50 mM HEPES, 150 mM NaCl, 0.5 mM DTT; one set of sites model"}}}
{"molecule": "Cc1c(C(=O)O)sc2[nH]c(=S)[nH]c(=O)c12", "note": "[CU7218]", "values": [{"measurement": "9J10 STD signal intensity with CU7218", "setting": "[1]", "result": "markedly reduced the 9J10 STD signal intensity"}, {"measurement": "lowest CU7218 concentration markedly reducing the 9J10 STD signal", "setting": "[1]; tested 50-250 μM", "result": "≥ 150", "unit": "µM"}, {"measurement": "IC50", "setting": "[2]", "result": 111, "unit": "µM"}, {"measurement": "disruption of substrate recognition by PLK1 polo-box domain", "setting": "[3]", "result": "failed to disrupt substrate recognition"}, {"measurement": "IC50", "setting": "[4]", "result": 26.5, "unit": "µM"}]}
{"molecule": "B1", "values": [{"measurement": "Kd", "setting": "[5]", "result": 0.7, "unit": "µM"}]}
